Test results taken from PMC8215677 (Frontiers in Pharmacology, 2021).
Where a name gives a salt, the structure may show the parent alone. Read-outs that look alike come from different tables or passages of the source. Marks after values point to notes of the source that are not given here.

Assays:
[1] = tested on: mouse gut sacs; test: Transportation of BBR in mouse gut sacs; assay type: in vitro ADME; conditions: BBR 200 μg/ml
Method: After incubation, aliquots of buffer (100 μL) were, respectively, taken from the serosal side or mucosal side every 15–60 min and replaced with an equal volume of blank Krebs-Ringer buffer. The LC-MS system (Quantification of several Coptidis Rhizomaalkaloids) was used for the quantitative analysis of BBR.

[2] = tested on: ICR mice; test: Acute toxicity in mice; assay type: in vivo; conditions: malic acid 9,800, 2,940 or 980 mg/kg oral
Method: Sixty ICR mice were randomly divided into three groups according to gender and body weight, with 20 mice in each group. After fasting for 12 h, the mice were orally administered with 0.2 ml/10 g body weight the NADES (the four-component NADES prepared with 350 μL water, the same below) or its 30 and 10% water dilutions, respectively. The symptoms of the mice were then observed, and the death time and the number of dead mice within 3 days were recorded.
The above method was also used to evaluate the acute toxicity of malic acid at different dosages, i.e., 9,800, 2,940, or 980 mg/kg, which were, respectively, equal to the dosages of malic acid in the NADES and its 30%, and10% water dilutions.

[3] = tested on: intestinal paracellular tight junctions (mouse gut sac); test: Transportation of FD4 across mouse gut sacs (tight junction integrity); assay type: in vitro ADME
Method: Fluorescein isothiocyanate-labeled dextran (FD4) with a molecular weight of 4,400 g/moL, is usually used to test the integrity of intestinal paracellular tight junctions ([Ma et al., 2012]). The influence of various NADES dilutions (1, 3, and 10%) on the in vitro transportation of FD4 (3 mg/ml) across the mouse gut sac was determined. The concentrations of FD4 were determined using a fluorescence microplate reader (BioTek Instruments, Winooski, VT, United States), with excitation and emission at 485 and 528 nm, respectively, ([Ma et al., 2012]). In addition, the effects of NADES dilutions pretreatment on the transportation of FD4 across the mouse gut sacs were also determined. Several mice were orally administered with 10% NADES aqueous solution. The intestines were collected after 4 h, completely washed with blank Krebs-Ringer buffer, and subsequently used for the transportation study.

[4] = tested on: MDCK-MDR1 cells; test: Cytotoxicity in MDCK-MDR1 cells (CCK-8); conditions: 4 and 24 h; for Cytotoxicity: p > 0.05
Method: The cells were seeded into 96 well plate at the density of 3 × 10^4 cells per well. After 24 h incubation in the incubator, the culture medium was carefully sucked out, and then 200 μL DMEM medium containing 0.1, 0.3, 1 or 3% NADES was added. The control well was added with the same volume of DMEM medium. After incubation for 4 h or 24 h, 10% CCK-8 solution was added. After incubation for another 2 h, the absorbance at 450 nm was measured by using a microplate reader. The cytotoxicity of the NADES dilutions was evaluated by comparing the absorbance of the treatment groups to that of the control group.
The above method was also used to evaluate the cytotoxicity of different concentrations of malic acid, i.e., 4.90, 1.47 or 0.49 mg/ml, which were, respectively, equal to the concentrations of malic acid in the 1, 0.3 or 0.1% dilutions of the NADES.

[5] = Pharmacokinetics of oral BBR in mice (portal vein and liver); assay type: in vivo, mice; conditions: for AUC0-∞ / AUC0–12 h / Cmax / MRT / Tmax / half-life / AUC(0-inf) / AUC(0-t): mice; for AUC(0-t): read-out: AUC0–12 h
Method: The dosages of malic acid were, respectively, equal to the dosages of malic acid in the 1 and 10% water dilutions of the NADES. […] Six mice in each group were anesthetized using diethyl ether at 0.25, 0.5, 1, 2, 3, 4, 6, 8, or 12 h after administration. Blood samples were then collected from the portal vein into heparin-containing tubes. The plasma samples were obtained by centrifugation of the blood samples at 1,000 g for 10 min at 4°C. The livers of the mice were collected and homogenized in 10 × volume of water. At the end of the experiment, the mice were euthanized by cervical dislocation.
A non-compartmental analysis using WinNonlin® software (Pharsight, CA, United States) was performed to obtain the pharmacokinetic parameters of berberine in mice. It should be noted that the pharmacokinetic parameters were calculated based on the average drug concentration at each time point because the mice were not continuously sampled.

[6] = ref Liu et al., cited from earlier work
[7] = Solubility of berberine hydrochloride in the NADES, its water dilutions and malic acid solutions; assay type: physicochemical
Method: BBR was dissolved in pure water as a control. The solutions were ultrasonically treated for 1 h, and after full vortexing, the solutions were placed at room temperature for 1 h. Next, the solutions were centrifuged at 20,000 g for 10 min at 20°C. The obtained supernatant was filtered through a 0.22 μm membrane. The filtered solution was diluted with a certain volume of methanol, followed by injection into the LC-MS system for the quantitative analysis of BBR (Quantification of several Coptidis Rhizomaalkaloids).
The concentrations of the primary metabolites were equal to their concentrations in the NADES, i.e., 490.5 mg/ml, 280.6 mg/ml, 517.7 mg/ml, and 19.0 mg/ml, respectively.

[8] = tested on: MDCK-MDR1 cell monolayer; test: Transportation of BBR across MDCK-MDR1 cell monolayer; assay type: in vitro ADME, canine; conditions: for P app (AP-BL) / P app (BL-AP) / ERs (efflux rate): BBR 10 μg/ml
Method: (§1) MDCK-MDR1 cells were seeded on a Merck Transwell polycarbonate membrane (NJ, United States) at a density of 2 × 10^5 cells/mL. The cells were cultured until the tight junctions were formed (transepithelial electrical resistance value >500 Ω cm2). Before the experiment, the media on both sides of the chamber were replaced with a warmed HBSS solution. The cells were then incubated for 20 min at 37°C.
(§2) The unit of P app is cm/sec.

[9] = as above; assay type: in vitro ADME, canine; conditions: dog, MDCK-MDR1
Method: as §1, §2

[10] = livers, oral BBR 200 mg/kg dissolved in water (Control)
[11] = livers, oral BBR 200 mg/kg in 1% NADES dilution
[12] = livers, oral BBR 200 mg/kg in 10% NADES dilution
[13] = livers, oral BBR 200 mg/kg in malic acid solution 98 mg/kg
[14] = livers, oral BBR 200 mg/kg in malic acid solution 980 mg/kg
[15] = mouse, liver, po, 200 mg/kg, livers, oral BBR 200 mg/kg dissolved in water (Control)
[16] = mouse, liver, po, 200 mg/kg, livers, oral BBR 200 mg/kg in 1% NADES dilution
[17] = mouse, liver, po, 200 mg/kg, livers, oral BBR 200 mg/kg in 10% NADES dilution
[18] = mouse, liver, po, 200 mg/kg, livers, oral BBR 200 mg/kg in malic acid solution 98 mg/kg
[19] = mouse, liver, po, 200 mg/kg, livers, oral BBR 200 mg/kg in malic acid solution 980 mg/kg
[20] = mouse, portal vein plasma, po, 200 mg/kg, portal vein, oral BBR 200 mg/kg dissolved in water (Control)
[21] = mouse, portal vein plasma, po, 200 mg/kg, portal vein, oral BBR 200 mg/kg in 1% NADES dilution
[22] = mouse, portal vein plasma, po, 200 mg/kg, portal vein, oral BBR 200 mg/kg in 10% NADES dilution
[23] = mouse, portal vein plasma, po, 200 mg/kg, portal vein, oral BBR 200 mg/kg in malic acid solution 98 mg/kg
[24] = mouse, portal vein plasma, po, 200 mg/kg, portal vein, oral BBR 200 mg/kg in malic acid solution 980 mg/kg

O=C(O)CC(O)C(=O)O (centres unmarked) [malic acid]
Effect on efflux of BBR in gut sacs ([1]; malic acid 14.7 mg/ml or more): promoted the efflux | Effect on absorption of BBR in gut sacs ([1]; malic acid 4.9–49.0 mg/ml, concentration-dependent): promoted the absorption | Acute toxicity [2]: significant acute toxicity | Effect on absorption of FD4 across mouse gut sacs ([3]; malic acid 4.9, 14.7, 49.0 mg/ml present, concentration dependent, p < 0.01): increased the absorption | Reversibility of the effect on FD4 absorption ([3]; malic acid pretreatment for 4 h): reversible | Cytotoxicity ([4]; 0.49 mg/ml malic acid): no significant cytotoxicity | Cytotoxicity ([4]; 1.47 mg/ml malic acid): no significant cytotoxicity | Cell viability ([4]; 4.9 mg/ml malic acid, p < 0.01): completely lost

COc1ccc2cc3[n+](cc2c1OC)CCc1cc2c(cc1-3)OCO2 [BBR, Berberine hydrochloride]
AUC0-∞ [5, 10]: 68.4 μg·h/g liver | AUC0–12 h [5, 10]: 66.3 μg·h/g liver | Cmax [5, 10]: 16.7 μg/g liver | AUC0-∞ [5, 11]: 80.9 μg·h/g liver | AUC0–12 h [5, 11]: 74.5 μg·h/g liver | Cmax [5, 11]: 29.3 μg/g liver | AUC0-∞ [5, 12]: 112.5 μg·h/g liver | AUC0–12 h [5, 12]: 109.4 μg·h/g liver | Cmax [5, 12]: 34.8 μg/g liver | AUC0-∞ [5, 13]: 73.8 μg·h/g liver | AUC0–12 h [5, 13]: 72.3 μg·h/g liver | Cmax [5, 13]: 38.0 μg/g liver | AUC0-∞ [5, 14]: 88.3 μg·h/g liver | AUC0–12 h [5, 14]: 85.9 μg·h/g liver | Cmax [5, 14]: 30.0 μg/g liver | Toxic reaction after oral administration ([5]; mouse, in vivo, po): no toxic reaction | MRT [5, 15]: 3.7 h | Tmax [5, 15]: 2 h | half-life [5, 15]: 2.2 h | MRT [5, 16]: 3.2 h | Tmax [5, 16]: 2 h | MRT [5, 17]: 3 h | Tmax [5, 17]: 1 h | half-life [5, 17]: 2.2 h | MRT [5, 18]: 3 h | Tmax [5, 18]: 2 h | half-life [5, 18]: 2.3 h | MRT [5, 19]: 2.5 h | Tmax [5, 19]: 1 h | half-life [5, 19]: 1.5 h | AUC(0-inf) [5, 20]: 1130 ng·h/mL | MRT [5, 20]: 3.1 h | Tmax [5, 20]: 2 h | half-life [5, 20]: 1.7 h | AUC(0-t) [5, 20]: 1120 ng·h/mL | Cmax ([5]; mouse, portal vein plasma, po, 200 mg/kg, portal vein, oral BBR 200 mg/kg dissolved in water (Control), read-out: Cmax): 321 ng/mL | AUC(0-inf) [5, 21]: 2740 ng·h/mL | MRT [5, 21]: 2.9 h | Tmax [5, 21]: 2 h | half-life [5, 21]: 1.3 h | AUC(0-t) [5, 21]: 2730 ng·h/mL | Cmax ([5]; mouse, portal vein plasma, po, 200 mg/kg, portal vein, oral BBR 200 mg/kg in 1% NADES dilution, read-out: Cmax): 975 ng/mL | AUC(0-inf) [5, 22]: 3610 ng·h/mL | MRT [5, 22]: 2.4 h | Tmax [5, 22]: 1 h | half-life [5, 22]: 1.7 h | AUC(0-t) [5, 22]: 3590 ng·h/mL | Cmax ([5]; mouse, portal vein plasma, po, 200 mg/kg, portal vein, oral BBR 200 mg/kg in 10% NADES dilution, read-out: Cmax): 1470 ng/mL | AUC(0-inf) [5, 23]: 2300 ng·h/mL | MRT [5, 23]: 2.7 h | Tmax [5, 23]: 2 h | half-life [5, 23]: 2.7 h | AUC(0-t) [5, 23]: 2230 ng·h/mL | Cmax ([5]; mouse, portal vein plasma, po, 200 mg/kg, portal vein, oral BBR 200 mg/kg in malic acid solution 98 mg/kg, read-out: Cmax): 972 ng/mL | AUC(0-inf) [5, 24]: 3070 ng·h/mL | MRT [5, 24]: 2.1 h | Tmax [5, 24]: 1 h | half-life [5, 24]: 1.4 h | AUC(0-t) [5, 24]: 3060 ng·h/mL | Cmax ([5]; mouse, portal vein plasma, po, 200 mg/kg, portal vein, oral BBR 200 mg/kg in malic acid solution 980 mg/kg, read-out: Cmax): 1250 ng/mL | Fraction of oral BBR directly removed with feces [6]; 2010: about 56% | Fraction of oral BBR eliminated by intestinal efflux transporters and drug metabolizing enzymes [6]; 2010: about 43.5% | Oral bioavailability [6]; 2010: 0.36% | Fraction of BBR directly discharged from the body after oral administration [6]; 2016: about 56% | Fraction of oral BBR eliminated during intestinal absorption [6]; 2016: 43.5% | solubility ([7]; NADES (undiluted), in the NADES (100%), room temperature (20°C)): ≥ 20 mg/mL | Solubility of berberine hydrochloride ([7]; as the pH of the malic acid solution was increased by addition of NaOH, p < 0.01): increased | Solubility of BBR compared with water ([7]; in 10% water dilution of NADES, p < 0.01): higher | Solubility of BBR compared with water ([7]; in 30% water dilution of NADES, p < 0.01): higher | P app (AP-BL) ([8]; with 0.3% NADES): 0.88 ± 0.13 ×10^−6 cm/s | P app (BL-AP) ([8]; with 0.3% NADES): 13.1 ± 1.9 ×10^−6 cm/s | ERs (efflux rate) ([8]; with 0.3% NADES, p < 0.05 vs Control): 14.9* | P app (AP-BL) ([8]; with 1% NADES): 20.1 ± 8.7 ×10^−6 cm/s | P app (BL-AP) ([8]; with 1% NADES): 21.7 ± 1.4 ×10^−6 cm/s | ERs (efflux rate) ([8]; with 1% NADES, p < 0.01 vs Control): 1.1** | P app from AP to BL ([8]; BBR alone): lower than 10^−6 cm/s | Papp A→B at 10 μg/ml [9]: 0.41 ± 0.06 ×10⁻⁶ cm/s | Papp B→A at 10 μg/ml [9]: 13.3 ± 0.4 ×10⁻⁶ cm/s
